Results as given in patent publication US10584103B2 (Sanford Burnham Prebys Medical Discovery Institute, priority 2014, dated 2020).

How the values were obtained:
NTR1 = NTR1 (Homo sapiens (Human), UniProt P30989); test: NTR1 dose response, high-content imaging assay in NTR1-U2OS cells (beta-arrestin-GFP); assay type: cell-based
From the text: The cell lines utilized in the high-content imaging assays, which include the NTR1-, NTR2-, and GPR35-U2OS osteosarcomas, were obtained from the laboratory of Dr. Lawrence Barak at the Duke University Medical Center. The media used in the culture of the cell lines, as well as the assays themselves, consisted of Minimum Essential Medium (15-010-CM) and L-glutamine (25-005-CL) from Cellgro/Mediatech (Manassas, Va.), fetal bovine serum (SH30396.03) from Hyclone (Logan, Utah), penicillin-streptomycin solution (PS-20) from Omega Scientific in Tarzana, Calif., G418 (ant-gn-1) from Invivogen (San Diego, Calif.), and zeocin (R250-01) from Invitrogen (Carlsbad, Calif.). Cell lines were cultured in T225 tissue culture flasks (431082) supplied by Corning (Corning, N.Y.). Additional reagents employed include Dulbecco's Phosphate-Buffered Saline (DPBS) (21-031CV) from Cellgro/Mediatech, Trypsin-EDTA 0.05% (25300) from Invitrogen, paraformaldehyde (30528954) from Acros Organics (Geel, Belgium), Hoechst 33342 (H3570) from Invitrogen. The high-content assays were run in 1536-well plates (29326) supplied by Aurora Biotechnology (Poway, Calif.) and utilized aluminum plate seals (T592100) from E&K Scientific (Santa Clara, Calif.). […]

[1] = test system: neurotensin-deficient mice; settings: cited from earlier work

Sequence of NTR1 (P30989 whole entry, species assumed): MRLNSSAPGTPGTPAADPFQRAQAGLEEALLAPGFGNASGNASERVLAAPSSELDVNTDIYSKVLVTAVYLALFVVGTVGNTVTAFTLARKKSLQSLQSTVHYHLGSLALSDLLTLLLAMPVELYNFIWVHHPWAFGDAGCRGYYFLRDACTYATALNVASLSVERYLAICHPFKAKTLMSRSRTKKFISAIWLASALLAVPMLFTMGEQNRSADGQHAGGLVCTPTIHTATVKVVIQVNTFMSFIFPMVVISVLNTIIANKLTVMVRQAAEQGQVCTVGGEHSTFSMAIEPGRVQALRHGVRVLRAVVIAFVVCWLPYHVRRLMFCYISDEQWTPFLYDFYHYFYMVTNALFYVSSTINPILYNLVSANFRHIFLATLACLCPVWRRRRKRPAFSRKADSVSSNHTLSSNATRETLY

Structure (SMILES)	EC50 (NTR1)	augmentation of PPI [1]
C#Cc1nc(N2CCC(c3ccccc3OC)CC2)c2cc(N(C)CCO)ccc2n1 [Example 192, 2-({2-Ethynyl-4-[4-(2-methoxy-phenyl)-piperidin-1-yl]-quinazolin-6-yl}-methyl-amino)-ethanol]	et	–
CN1CCN(C2=Nc3cc(Cl)ccc3Nc3ccccc32)CC1 [clozapine]	–	augmented PPI normally
O=C(CCCN1CCC(O)(c2ccc(Cl)cc2)CC1)c1ccc(F)cc1 [haloperidol]	–	ineffective
OCCOCCN1CCN(C2=Nc3ccccc3Sc3ccccc32)CC1 [quetiapine]	–	ineffective
